Here are results for one substance from patent US8883130B2, “Transparent antiperspirant gels” (Henkel AG & Co. KGaA, priority 2008, dated 2014).

A short description of this data set: Emulsion stability with silicone-free water-in-oil emulsifiers. The data set is classed as physicochemical.

With Laureth-2, the “stability of the emulsion” value is listed as “did not yield stable emulsions”.
